{"source": "patent US20240099295A1", "about": "“CELL TREATMENT AGENT” (AYA Inc., priority 2021, published 2024)", "assay_type_in_all_cases": "cell-based", "key": {"[1]": {"test_system": "Rat corneal epithelial cell", "test": "Cell protective effect: cell survival during preservation (trypan blue excretion test)", "details": "for Average survival rate at 72 hours: refrigerator 4° C.; for Average survival rate at 24 hours: normal temperature (22° C.)", "description": "Using a normal serum-free cell culture solution without FBS or a Ringer's solution (Otsuka Pharmaceutical Co., Ltd., Lactec Injection, Japanese Pharmacopoeia, Sodium L-lactate Ringer's solution) as a conditioning solution for use, for example, in preservation and transportation of cells, sodium alginate (Na alginate) (Fuji Chemical Industry Co., Ltd. Snow Algin SSL, viscosity of 1% aqueous solution is 30 mPa·s at 20° C.) was added to the conditioning solution in the concentrations shown in Table 1 to prepare cell preservation solutions. To each cell preservation solution, the above-described cells were added at a concentration of 10^6 cells/ml to satisfy the conditions shown in Table 1, and the resultant solution was left to stand in a room at normal temperature (22° C.) for 24 hours, and then whether cells were alive or dead was determined, and rates of viable cells (average survival rate (%)) were calculated and compared. Cell viability was determined by the trypan blue excretion test that is the ordinary method of confirming cell viability. The excretion test was performed according to the method described in “Denizot F., et al., Rapid colorimetric assay for cell growth and survival. Modifications to the tetrazolium dye procedure giving improved sensitivity and reliability. J. Immunol. Methods, 89, 271-277 (1986)”. The results are of N=4.\nThe average survival rate (%) was determined in the same manner as in Experimental Example (1-1-1) except that the preservation conditions were changed to leaving still for 72 hours in a refrigerator at a set temperature of 4° C. The results are of N=4.\nThe average survival rate (%) of cells was determined in the same manner as in Experimental Example (1-1-1) except that dextran sulfate (dextran sulfate special grade reagent available from NACALAI TESQUE, INC.) was used instead of sodium alginate and the conditions were as shown in Table 3. The results are of N=4.\nThe average survival rate (%) of cells was determined in the same manner as in Experimental Example (1-2-1) except that the preservation conditions were changed to leaving still for 72 hours in a refrigerator at a set temperature of 4° C. and to conditions shown in Table 4. The results are of N=3 in the case of using a serum-free cell culture solution, and are of N=4 in the case of using a Ringer's solution.\nThe average survival rate (%) of cells was determined in the same manner as in Experimental Example (1-1-1) except that heparin sodium (Heparin Na Mochida, unfractionated heparin, available from Mochida Pharmaceutical Co., Ltd.) was used instead of alginic acid and the conditions were as shown in Table 5. The results are of N=4.\nThe average survival rate (%) of cells was determined in the same manner as in Experimental Example (1-3-1) except that the preservation conditions were changed to leaving still for 72 hours in a refrigerator at a set temperature of 4° C. and to conditions shown in Table 6. The results are of N=4.\nThe average survival rate (%) of cells was determined in the same manner as in Experimental Example (1-3-2) except that urinastatin (Miraclid injection solution, containing 2.5 million units, available from Mochida Pharmaceutical Co., Ltd.) was used as a proteolytic enzyme inhibitor instead of heparin sodium and the conditions were as shown in Table 7. The results are of N=4. “Unit (U)” in the unit of concentration (units/mL) of inhibitor a in Table 7 can be measured, for example, by the quantitative method of urinastatin in the Japanese Pharmacopoeia 15th revision. Specifically, absorbance at 405 nm of a sample solution is measured with a UV 240 spectrophotometer, and concentration of urinastatin can be calculated from a calibration curve prepared in advance. […]"}, "[2]": {"test_system": "Rat corneal epithelial cell", "test": "Cell detaching and suspending effect under gentle shaking (Experimental Example 5)", "details": "cell culture solution containing 10% FBS, 37° C.", "description": "In the same manner as in Experimental Example 4, rat corneal epithelial cells were sufficiently adhered to the culture dish wall which is a scaffold.\nTo the culture solutions in the culture dish on which cultured cells obtained in the manner as described above had adhered, each active ingredient was added in a concentration shown in Table 14, or no active ingredient was added. Each culture dish was then placed on the base of a shaker (product name: Laboshaker Model BC-740, available from BIO CRAFT Corporation), the shaking intensity was set to the lowest level, and the shaking frequency was set to 4 times/min, and cells were cultured under normal cell culture conditions (37° C., CO2 concentration of 5%, humidity of 100%) for 24 hours while each culture dish was gently shaken. Then, detachment and suspension of cells after 24 hours of culturing was observed. For determination of detachment and suspension, whether cells were detached from the dish wall and suspended under shaking of the culture dish was observed, and the case where 90% or more of the cells were detached and suspended was determined as “detached and suspended”, and “detached and suspended” cells were marked with “∘” and “undetached and unsuspended” cells were marked with “x”. The results are of N=4."}, "[3]": {"test_system": "Rat corneal epithelial cell", "test": "Cell dormancy effect: cell cycle analysis by flow cytometry", "details": "serum-free cell culture solution, cultured 48 hours at 37° C.", "description": "Sodium alginate (sodium alginate first grade reagent, available from FUJIFILM Wako Pure Chemical Corporation, viscosity of 1% aqueous solution is 120 mPa·s at 20° C.), DS (the same as in Experimental Example 1), or sodium heparin (the same as in Experimental Example 1) was used as an active ingredient in the cell treatment agent, and whether cell dormancy occurs or not by action of the active ingredient was examined by comparing the activities of cell division and proliferation which are the most general cell activities in the following manner.\nThe cell cycle was analyzed by flow cytometry according to the method described in known literature (Piotr Pozarowski and Zbigniew Darzynkiewicz, “Analysis of Cell Cycle by Flow Cytometry,” Methods in Molecular Biology, vol. 281: Checkpoint Controls and Cancer, Volume 2), and frequency of cell division and proliferation was compared between different active ingredients of the cell treatment agent. A specific method is as follows. Using a normal serum-free cell culture solution as a conditioning solution (comparison reference (a)), (b) a cell preservation solution in which sodium alginate (Na alginate) is added to the conditioning solution in a concentration of 2.5 mg/ml, (c) a cell preservation solution in which DS is added to the conditioning solution in a concentration of 0.1 mg/ml, and (d) a cell preservation solution in which heparin sodium (heparin Na) is added to the conditioning solution in a concentration of 50 units/ml, were prepared. To these cell preservation solutions, rat corneal epithelial cells were added at a cell concentration of 10^5 cells/ml and cultured for 48 hours under normal cell culture conditions (37° C., CO2 concentration of 5%, humidity of 100%). The number of cells in each culture was determined by cell cycle analysis using flow cytometry to determine the number of cells in each cell cycle, and the percentage of cells in the S phase, G2 phase, and M phase, which are considered as the periods of the cell division and proliferation process, was compared with the percentage of cells in the G0 phase and G1 phase, which are considered as other periods. The results are of N=4."}}}
{"substance": "heparin sodium [Heparin Na, reference compound]", "values": [{"measurement": "Average survival rate at 72 hours", "setting": "[1]; Heparin Na 5 units/mL, Ringer's solution", "result": 70, "unit": "%"}, {"measurement": "Average survival rate at 24 hours", "setting": "[1]; Heparin Na 5 units/mL, serum-free cell culture solution", "result": 69, "unit": "%"}, {"measurement": "Average survival rate at 72 hours", "setting": "[1]; Heparin Na 25 units/mL, Ringer's solution", "result": 72, "unit": "%"}, {"measurement": "Average survival rate at 24 hours", "setting": "[1]; Heparin Na 25 units/mL, serum-free cell culture solution", "result": 75, "unit": "%"}, {"measurement": "Average survival rate at 72 hours", "setting": "[1]; Heparin Na 125 units/mL, Ringer's solution", "result": 74, "unit": "%"}, {"measurement": "Average survival rate at 24 hours", "setting": "[1]; Heparin Na 125 units/mL, serum-free cell culture solution", "result": 76, "unit": "%"}, {"measurement": "Detachment at lapse of 24 hours after addition of active ingredient", "setting": "[2]; Heparin Na 100 units/mL", "result": "∘ (“detached and suspended” cells were marked with “∘”)"}, {"measurement": "Percentages of cells of each cell cycle: G0 phase + G1 phase", "setting": "[3]; Heparin Na 50 units/mL", "result": 89.7, "unit": "%"}, {"measurement": "Percentages of cells of each cell cycle: S phase + G2 phase + M phase", "setting": "[3]; Heparin Na 50 units/mL", "result": 7.68, "unit": "%"}]}
{"substance": "dextran sulfate [DS]", "values": [{"measurement": "Average survival rate at 72 hours", "setting": "[1]; DS 0.003 mg/mL, Ringer's solution", "result": 67, "unit": "%"}, {"measurement": "Average survival rate at 24 hours", "setting": "[1]; DS 0.003 mg/mL, serum-free cell culture solution", "result": 62, "unit": "%"}, {"measurement": "Average survival rate at 72 hours", "setting": "[1]; DS 0.003 mg/mL, serum-free cell culture solution, N=3", "result": 76, "unit": "%"}, {"measurement": "Average survival rate at 72 hours", "setting": "[1]; DS 0.1 mg/mL, Ringer's solution", "result": 71, "unit": "%"}, {"measurement": "Average survival rate at 24 hours", "setting": "[1]; DS 0.1 mg/mL, serum-free cell culture solution", "result": 71, "unit": "%"}, {"measurement": "Average survival rate at 72 hours", "setting": "[1]; DS 0.1 mg/mL, serum-free cell culture solution, N=3", "result": 79, "unit": "%"}, {"measurement": "Average survival rate at 72 hours", "setting": "[1]; DS 1 mg/mL, Ringer's solution", "result": 60, "unit": "%"}, {"measurement": "Average survival rate at 24 hours", "setting": "[1]; DS 1 mg/mL, serum-free cell culture solution", "result": 73, "unit": "%"}, {"measurement": "Average survival rate at 72 hours", "setting": "[1]; DS 1 mg/mL, serum-free cell culture solution, N=3", "result": 73, "unit": "%"}, {"measurement": "Detachment at lapse of 24 hours after addition of active ingredient", "setting": "[2]; DS 0.5 mg/mL", "result": "∘ (“detached and suspended” cells were marked with “∘”)"}, {"measurement": "Percentages of cells of each cell cycle: G0 phase + G1 phase", "setting": "[3]; DS 0.1 mg/mL", "result": 92.4, "unit": "%"}, {"measurement": "Percentages of cells of each cell cycle: S phase + G2 phase + M phase", "setting": "[3]; DS 0.1 mg/mL", "result": 5.77, "unit": "%"}]}
